How the values were obtained:
[1] = Host-dye fluorescence titration (quenching of dye emission on stepwise addition of host); assay type: binding; details: for binding affinity (Ka): host-dye binding interaction in surine, fluorescence monitored at 423 nm
Description: Addition of the receptor host molecule to the dye solution results in a quenching of the dye emission upon the formation of the self-assembled P5AS-MDAP host-dye fluorescent chemosensor. Thereby, in the sensing assay, in the presence of polyamines, the dye is displaced from the host cavity resulting in a fluorescence "turn-on" signal. The involved processes show very fast binding kinetics and fast signal responses.

[2] = tested on: P5AS-MDAP host-dye chemosensor; assay: Fluorescence turn-on indicator displacement sensing assay with P5AS-MDAP chemosensor in artificial media; assay type: binding; details: for relative fluorescence intensity changes monitored at 423 nm: addition of P5AS-MDAP
Description: Thereby, in the sensing assay, in the presence of polyamines, the dye is displaced from the host cavity resulting in a fluorescence "turn-on" signal.
(§1) Fig. 2 Schematic illustration of established cation exchange reactions in systems wherein the known chemosensors become dysfunctional in biologically relevant media such as PBS or urine. At high salt concentrations, the signalling binding pockets of the receptor host molecule are occupied by salts and are no longer available for the detection of relevant analytes. Moreover, chemosensors self-assembled from a receptor host and dye molecules decompose at high salt concentrations as the dye is pushed out of the receptor by the salts. Fig. 3 • (a) Chemical structure of the preferred host molecule P5AS. • (b) Chemical structure of the preferred dye molecule MDAP. • (c) Chemical structure of the preferred dye molecule BrDAP. […] Fig. 8 Relative fluorescence intensity changes monitored at 433 nm on addition of P5AS-BrDAP chemosensor (21.6 µM) to • (a) human urine samples collected from four healthy individuals (diluted two times) and later spiked with several polyamines and polyamine mixtures (each at 5 µM) in order to simulate urine from diseased patients and • (b) human saliva sample collected from a healthy individual (undiluted) and later spiked with several polyamines and polyamine mixtures (each at 5 µM) in order to simulate saliva from diseased patients (microplate reader assay). […] Fig. 9 Relative fluorescence intensity changes monitored at 423 nm upon addition of • (a) P5AS-MDAP host-dye chemosensor and • (b) P5AS-BrDAP host-dye chemosensor to a solution of spermine (spm, 3.3 µM) in neurobasal™ medium.

[3] = tested on: P5AS-BrDAP host-dye chemosensor; assay: Fluorescence turn-on indicator displacement sensing assay with P5AS-BrDAP chemosensor in artificial media; assay type: binding; details: addition of P5AS-BrDAP
P5AS-BrDAP chemosensor = details: chemosensor 21.6 µM; human urine (diluted two times) and saliva (undiluted), spiked each at 5 µM
Description: as §1, with “salts.” for “salts. Fig. 3 • (a) Chemical structure of the preferred host molecule P5AS. • (b) Chemical structure of the preferred dye molecule MDAP. • (c) Chemical structure of the preferred dye molecule BrDAP.”

[4] = spermine 3.3 µM in neurobasal medium

SMILES	binding affinity (Ka) [1]	relative fluorescence intensity changes monitored at 423 nm ([2]; polyamine 3.3 µM in surine)	relative fluorescence intensity changes monitored at 423 nm ([3]; polyamine 3.3 µM in surine)	also measured
BrCCCC[n+]1cc2ccc3c[n+](CCCCBr)cc4ccc(c1)c2c34 [BrDAP, N,N'-bis(4-bromobutyl)-2,7-diazapyrenium dication]	4.5e+08 M⁻¹	–	–	stronger binding affinity for P5AS compared to MDAP [1]: 10^2 times; binding affinity towards P5AS ([1]; order of magnitude, Figure 7a experiments in surine): 10^8 M^-1
C[n+]1cc2ccc3c[n+](C)cc4ccc(c1)c2c34 [MDAP, N,N'-dimethyl-2,7-diazapyrenium dication]	4.9e+06 M⁻¹	–	–	–
NCCCCN [Putrescine, putrescine]	–	does not give rise to any changes in the fluorescence intensity	–	–

Continued, in another order:

binding affinity (Ka) [1]	relative fluorescence intensity changes monitored at 423 nm ([2]; polyamine 3.3 µM in surine)	SMILES	relative fluorescence intensity changes monitored at 423 nm ([3]; polyamine 3.3 µM in surine)	also measured
–	strong fluorescence enhancement	NCCCCCN [cadaverine]	no significant fluorescence signal change	–
–	strong fluorescence enhancement	NCCCCNCCCN [spermidine]	no significant fluorescence signal change	–
–	strong fluorescence enhancement	NCCCNCCCCNCCCN [spermine]	strong fluorescence enhancement	relative fluorescence intensity changes monitored at 433 nm, spiked versus healthy samples (P5AS-BrDAP chemosensor): clear distinction between the fluorescence signal outputs; relative fluorescence intensity changes monitored at 423 nm [2, 4]: strong fluorescence enhancement; time to fluorescence signal turn-on (displacement of MDAP from the host) ([2]; spermine 5.1 µM added to P5AS-MDAP in surine, 423 nm): within a few milliseconds; relative fluorescence intensity changes monitored at 423 nm [3, 4]: strong fluorescence enhancement
